# Test results from patent publication US8160709B2, “Use of electrical stimulation of the lower esophageal sphincter to modulate lower esophageal sphincter pressure” (Endostim, Inc., priority 2006, dated 2012).
# “Also recorded” adds a separate entry of the source. Marks after values point to notes of the source that are not given here.
# System: lower esophageal sphincter
# Test: Lower esophageal sphincter pressure recording during NGES in anesthetized dogs, after L-NAME and atropine
# Assay type: in vivo
# Method: All recordings were performed one hour after consumption of three ounces of canned dog food to prevent fluctuations in lower esophageal sphincter pressure, and under mild sedation (acepromazine 0.5 mg/kg). During electrical stimulation days, tests consisted of three periods of 20 minutes each: […] Electrical stimulation was delivered using an external pulse generator. […] Area under the curve (“AUC”) and pressure were compared among the three periods. Data are shown as mean±SD, ANOVA and t-test, p<0.05. Three female mongrel dogs underwent continuous recording of lower esophageal sphincter pressure under anesthesia. NGES was delivered to the lower esophageal sphincter for 10 minutes at: […] Changes in lower esophageal sphincter pressure during NGES are presented as percent change from preceding baseline. Results (FIG. 6) are presented as mean±SD.
# [1] = in words, anesthetized dogs, L-NAME 50 mg/kg, atropine 0.05 mg/kg in presence of L-NAME
# [2] = in words, anesthetized dogs, L-NAME 50 mg/kg, atropine 0.05 mg/kg in presence of L-NAME, listed as atropine
# [3] = LES pressure during NGES, percent change from preceding baseline, L-NAME 50 mg/kg, atropine 0.05 mg/kg in presence of L-NAME, mean (SD)
# [4] = during NGES, L-NAME 50 mg/kg, atropine 0.05 mg/kg in presence of L-NAME, mean (SD)
SMILES,Effect on (baseline) lower esophageal sphincter pressure [1],Effect on initial rise in lower esophageal sphincter pressure induced by NGES [1],Effect on (baseline) lower esophageal sphincter pressure [2],Effect on initial rise in lower esophageal sphincter pressure induced by NGES [2],Initial Peak (% change) [3],Relaxation (% change) [3],"Lower Esophageal Sphincter Pressure Baseline (anesthetized female mongrel dogs, L-NAME infusion 50 mg/kg, atropine 0.05 mg/kg in the presence of L-NAME, mean (SD))",Peak Duration [4],Relaxation Duration [4],"Effect on lower esophageal sphincter relaxation phase following NGES (in words, anesthetized dogs, L-NAME 50 mg/kg)"
"CN1[C@@H]2CC[C@H]1C[C@@H](OC(=O)C(CO)c1ccccc1)C2 (stereo partly drawn) [Atropine, atropine]",lowered,abolished,reduced,reduced,,,,,,
COC(=O)[C@@H](N)CCCNC(=N)N[N+](=O)[O-] [L-NAME],increased,augmented; also recorded: enhanced,,,76 (48.6) % change,28.2 (34.1)** % change,35.7 (5.1)* mmHg,6.7 (3.9) sec,4.4 (3.8) sec,markedly diminished or abolished; also recorded: markedly suppressed
